Here are results for 22 compounds from patent US8921382B2, “Thiazolo[5,4-d] pyrimidines and their use as agrochemicals” (Dow AgroSciences, LLC., priority 2010, dated 2014).

SMILES strings stand for the structures.

Holding throughout (type): in vivo
In one test the test system is Pyricularia oryzae. Description: whole plant or invertebrate. The conditions noted are these: foliar, read-out: Activity against Fungal Diseases PYRIOR (percent disease control).
In test [1] the test system is Puccinia recondita tritici. In words: Leaf Rust of Wheat foliar spray test, inoculated one day after treatment. The following applies: wheat plants, read-out: Activity against Fungal Diseases PUCCRT (percent disease control); for pest or weed control at 200 ppm: applied to foliage at 200 ppm; for pest or weed control at 3 ppm: Tested at 3 ppm. The method, then:
(§1) Fungicide activity data are the level (in percent) at which the given disease was controlled when the given compound was applied to the foliage of the plants at 200 ppm. In a few cases (noted in the table) the compound was applied to the plants at 25 ppm or 3 ppm. The plants were inoculated with the fungus one day after treatment. ***=80-100% control; **=50-79% control; *=0-49% control. […] The activity of the compounds as effective fungicides was determined by applying the compounds to plants and observing control of fungal disease. […] All plants were inoculated with spores of the fungus the day after treatment, then incubated in an environment conducive to disease development. Disease severity was evaluated 4 to 25 days (d) later, depending on the speed of disease development. The following experiments were performed in the laboratory to determine the fungicidal efficacy of the compounds of the invention. […] Each pot contained 3-8 seedlings. These plants were sprayed until wet with the formulated test compounds. On the following day, the leaves were inoculated with an aqueous spore suspension of Puccinia recondita tritici and the plants were kept in high humidity overnight to permit spores to germinate and infect the leaf. The plants were then transferred to a greenhouse until disease developed on untreated control plants. […] The effectiveness of the test compounds at controlling disease when sprayed on leaves was determined by assessing the severity of disease on treated plants, then converting the severity to percent control based on the level of disease on untreated, inoculated plants.

For another test, the system named is Septoria tritici. Description: Septoria Blotch of Wheat foliar spray test, inoculated one day after treatment. The following applies: Zymoseptoria tritici, wheat plants, read-out: Activity against Fungal Diseases SEPTTR (percent disease control); for pest or weed control at 25 ppm: Tested at 25 ppm; for pest or weed control at 200 ppm: applied to foliage at 200 ppm. The protocol: as §1, with “3-10” for “3-8”, “compound.” for “compounds.”, “Septoria” for “Puccinia recondita”, “(one day in a dark dew chamber followed by two days in a lighted dew chamber)” for “overnight”

In the case of `N#Cc1ccnc(Oc2ccc(CCNc3ncnc4scnc34)cc2)c1` [Compound 2, 2-{4-[2-(thiazolo[5,4-d]pyrimidin-7-ylamino)-ethyl]-phenoxy}-isonicotinonitrile], the pest or weed control at 200 ppm (with Pyricularia oryzae; in test [1]) was 80 to 100% in each case. The pest or weed control at 25 ppm with Septoria tritici is 50 to 79%.
In the case of `COc1cc(CCNc2ncnc3scnc23)ccc1Oc1cc(C(F)(F)F)ccn1` [Compound 17, {2-[3-methoxy-4-(4-trifluoromethylpyridin-2-yloxy)-phenyl]-ethyl}-thiazolo[5,4-d]pyrimidin-7-ylamine], in test [1], the pest or weed control at 3 ppm lay in the range of 80 to 100%. Moreover, the pest or weed control at 25 ppm in the test on Septoria tritici was in the range of 80 to 100%.
On to `Cc1cc(O)ccc1CCNc1ncnc2scnc12` [Compound 57, 3-methyl-4-[2-(thiazolo[5,4-d]pyrimidin-7-ylamino)-ethyl]-phenol], for which the pest or weed control at 200 ppm (in test [1]; in the test on Septoria tritici) was 0 to 49% each time.
As to `CC(Cc1ccc(Oc2c(F)cnc(C(F)(F)F)c2F)cc1)Nc1ncnc2scnc12` (stereo not shown) [Compound 14, {2-[4-(3,5-Difluoro-2-trifluoromethylpyridin-4-yloxy)-phenyl]-1-methyl-ethyl}-thiazolo[5,4-d]pyrimidin-7-ylamine], the pest or weed control at 3 ppm in test [1] lay in the range of 0 to 49%. Also, the pest or weed control at 25 ppm in the test with Septoria tritici was in the range of 80 to 100%.
On to `COc1ccc(C(C)Nc2ncnc3scnc23)cc1` (stereo not shown) [Compound 1, [1-(4-Methoxyphenyl)-ethyl]-thiazolo[5,4-d]pyrimidin-7-yl-amine], for which the pest or weed control at 200 ppm (with Pyricularia oryzae; in test [1]) was 80 to 100% throughout.
`COc1ccc(CCNc2ncnc3scnc23)cc1C` [Compound 19, [2-(4-methoxy-3-methylphenyl)-ethyl]-thiazolo[5,4-d]pyrimidin-7-ylamine]: the results for the pest or weed control at 200 ppm (in test [1]; in the test on Septoria tritici) were 80 to 100% and 50 to 79%, respectively.
In the case of `Oc1ccc(CCNc2ncnc3scnc23)cc1` [Compound 3, 4-[2-(thiazolo[5,4-d]pyrimidin-7-ylamino)-ethyl]-phenol], the pest or weed control at 200 ppm (with Pyricularia oryzae; in test [1]) was 0 to 49% in each case. Also, the pest or weed control at 25 ppm in the test on Septoria tritici was in the range of 0 to 49%.
For `Cc1cc(CCNc2ncnc3scnc23)ccc1Oc1ccncc1C(F)(F)F` [Compound 47, {2-[3-methyl-4-(3-trifluoromethylpyridin-4-yloxy)-phenyl]-ethyl}-thiazolo[5,4-d]pyrimidin-7-ylamine], the pest or weed control at 200 ppm (with Pyricularia oryzae; in test [1]; in the test on Septoria tritici) was 80 to 100% in each case.
As for `COc1ccc(CCNc2ncnc3scnc23)c(F)c1` [Compound 55, [2-(2-fluoro-4-methoxyphenyl)-ethyl]-thiazolo[5,4-d]pyrimidin-7-ylamine], the pest or weed control at 200 ppm in test [1] was 80 to 100%; with Septoria tritici, 0 to 49%.
The corresponding values for `Fc1cc(Oc2cc(C(F)(F)F)ncn2)ccc1CCNc1ncnc2scnc12` [Compound 63, {2-[2-fluoro-4-(6-trifluoromethylpyrimidin-4-yloxy)-phenyl]-ethyl}-thiazolo[5,4-d]pyrimidin-7-ylamine] are 80 to 100% and 80 to 100%.
Regarding `COc1cc(CCNc2ncnc3scnc23)ccc1Oc1cc(C(F)(F)F)ncn1` [Compound 54, {2-[3-methoxy-4-(6-trifluoromethylpyrimidin-4-yloxy)-phenyl]-ethyl}-thiazolo[5,4-d]pyrimidin-7-ylamine], the pest or weed control at 200 ppm (in test [1]; with Septoria tritici) was 80 to 100% throughout.
Take `COc1ccc(CCNc2ncnc3scnc23)c(C)c1` [Compound 56, [2-(4-methoxy-2-methylphenyl)-ethyl]-thiazolo[5,4-d]pyrimidin-7-ylamine]: the pest or weed control at 200 ppm in test [1] was 0 to 49%; in the test on Septoria tritici it was 50 to 79%.
With `FC(F)(F)COc1ccc(CCNc2ncnc3scnc23)cn1` [Compound 4, thiazolo[5,4-d]pyrimidin-7-yl-{2-[6-(2,2,2-trifluoroethoxy)-pyridin-3-yl]-ethyl}-amine], the pest or weed control at 200 ppm (with Pyricularia oryzae; in test [1]) was 80 to 100% each time. Further, the pest or weed control at 25 ppm in the test on Septoria tritici was in the range of 0 to 49%.
For the compound `Cc1cc(CCN(c2nc(C(F)(F)F)c(Cl)s2)c2ncnc3scnc23)ccc1Oc1nc(C(F)(F)F)c(Cl)s1` [Compound 45, (5-chloro-4-trifluoromethylthiazol-2-yl)-{2-[4-(5-chloro-4-trifluoromethylthiazol-2-yloxy)-3-methylphenyl]-ethyl}-thiazolo[5,4-d]pyrimidin-7-ylamine], the pest or weed control at 3 ppm in test [1] is 0 to 49%. The pest or weed control at 25 ppm in the test with Septoria tritici was 0 to 49%.
For the compound `COc1cc(CCNc2ncnc3scnc23)ccc1Oc1c(Cl)cnc(C(F)(F)F)c1Cl` [Compound 48, {2-[4-(3,5-dichloro-2-trifluoromethylpyridin-4-yloxy)-3-methoxyphenyl]-ethyl}-thiazolo[5,4-d]pyrimidin-7-ylamine], the pest or weed control at 200 ppm (in the test with Pyricularia oryzae; in test [1]; with Septoria tritici) was 80 to 100% in each case.
For `Fc1cc(Oc2cc(C(F)(F)F)ccn2)ccc1CCNc1ncnc2scnc12` [Compound 60, {2-[2-fluoro-4-(4-trifluoromethylpyridin-2-yloxy)-phenyl]-ethyl}-thiazolo[5,4-d]pyrimidin-7-ylamine], the pest or weed control at 200 ppm (in test [1]; in the test on Septoria tritici) was 80 to 100% each time.
As to `FC(F)(F)c1ccc(Oc2ccc(CCNc3ncnc4scnc34)cc2)nc1` [Compound 50, thiazolo[5,4-d]pyrimidin-7-yl-{2-[4-(5-trifluoromethylpyridin-2-yloxy)-phenyl]-ethyl}-amine], the pest or weed control at 3 ppm in test [1] lay within 80 to 100%. The pest or weed control at 25 ppm with Septoria tritici fell in the range of 80 to 100%.
Turning to `COc1cc(CCNc2ncnc3scnc23)ccc1Oc1ccc(C(F)(F)F)cn1` [Compound 51, {2-[3-methoxy-4-(5-trifluoromethylpyridin-2-yloxy)-phenyl]-ethyl}-thiazolo[5,4-d]pyrimidin-7-ylamine], in test [1], the pest or weed control at 3 ppm was 80 to 100%. Further, in the test on Septoria tritici, the pest or weed control at 25 ppm lay within 80 to 100%.
Turning to `Oc1ccc(CCNc2ncnc3scnc23)c(F)c1` [Compound 58, 3-fluoro-4-[2-(thiazolo[5,4-d]pyrimidin-7-ylamino)-ethyl]phenol], the pest or weed control at 200 ppm (in test [1]; in the test on Septoria tritici) was 0 to 49% each time.
In the case of `Fc1nc(F)c(F)c(Oc2ccc(CCNc3ncnc4scnc34)cc2)c1F` [Compound 5, {2-[4-(2,3,5,6-tetrafluoropyridin-4-yloxy)-phenyl]-ethyl}-thiazolo[5,4-d]pyrimidin-7-ylamine], the pest or weed control at 3 ppm in test [1] lay in the range of 80 to 100%. The pest or weed control at 25 ppm in the test with Septoria tritici is 0 to 49%.
In the case of `COc1cc(CCNc2ncnc3scnc23)ccc1Oc1cnccc1C(F)(F)F` [Compound 29, {2-[3-methoxy-4-(4-trifluoromethylpyridin-3-yloxy)-phenyl]-ethyl}-thiazolo[5,4-d]pyrimidin-7-ylamine], the pest or weed control at 3 ppm in test [1] was in the range of 80 to 100%. Also, the pest or weed control at 25 ppm with Septoria tritici is 50 to 79%.
Consider `Cc1cc(CCNc2ncnc3scnc23)ccc1O` [Compound 20, 2-methyl-4-[2-(thiazolo[5,4-d]pyrimidin-7-ylamino)-ethyl]-phenol], for which the pest or weed control at 200 ppm (in test [1]; with Septoria tritici) was 0 to 49% in each case.
